One assay has as its target T1, sphingomyelinase (Bacillus cereus, UniProt P11889).
T1 construct: purchased Sigma Chemical, St. Louis, Mo; S7651
Description: SAST Sphingomyelinase Activity Screening Test. The format is biochemical. The following applies: test band brightness divided by average of positive controls; above 1 enhancer, below 1 inhibitor; BODIPY FL C5-Sphingomyelin substrate, 30 minutes, 25° C., PBS pH=7.4.

Assay [1] concerns ceramidase (infant fecal extract). Description: CAST Ceramidase Activity Screening Test. The format is biochemical. To be noted: relative to positive control, above 1 enhancer, below 1 inhibitor, C5 ceramide substrate, 18 hours, 25° C., PBS pH=7.4. The protocol:
Agents, such as botanical extracts and related compounds, for example, are tested for their ability to decrease the activity of ceramidase in a ceramidase/ceramide system. A decrease in the activity of ceramidase results in an increase in the level of ceramides. The Ceramidase Activity Screening Test is completed as follows:
Step 1: Preparation of Testing Solution Comprising Ceramidase (Fecal Extract), Agent, and Ceramide: Combine the following to prepare a 100 microliter test solution: (1) 10 microliters of agent where the agent is an aqueous solution or oil (if the agent is a powder solid, prepare 10 microliters of a 0.1 microgram/milliliter solution by dissolving the appropriate amount of powder or solid in Phosphate Buffered Saline, pH=7.4); (2) 10 microliters of infant fecal extract in Phosphate Buffered Saline, pH=7.4 prepared by extracting 1 gram of infant feces in 9 mL of Phosphate Buffered Saline, pH=7.4, and vortexing the extraction for about 2 minutes followed by centrifugation to remove any solids; (3) 10 microliters of 250 microgram/milliliter C5 ceramide in Phosphate Buffered Saline, pH=7.4; and (4) 70 microliters of Phosphate Buffered Saline, pH=7.4.
Step 2: Preparation of Control Testing Solution Comprising Ceramidase and Ceramide: Combine the following to prepare a 100 microliter test solution: (1) 10 microliters of infant fecal extract in Phosphate Buffered Saline, pH=7.4; (2) 10 microliters of 250 microgram/milliliter BIODIPY FL C5 ceramide (Molecular Probes, Eugene, Wash.) in Phosphate Buffered Saline, pH=7.4; and (3) 80 microliters of Phosphate Buffered Saline, pH=7.4. […]
Step 3: Illuminate each plate with a 364 nanometer light source and take pictures with a suitable camera, such as a digital Kodak DC 40. The digital image is transferred as a TIFF file to the Alpha Innotech Flourchem Plate Imaging System and analyzed as described above with similar positive (substrate and ceramidase) and negative (substrate and no enzyme) controls. […]

T1 sequence (P11889 28-333): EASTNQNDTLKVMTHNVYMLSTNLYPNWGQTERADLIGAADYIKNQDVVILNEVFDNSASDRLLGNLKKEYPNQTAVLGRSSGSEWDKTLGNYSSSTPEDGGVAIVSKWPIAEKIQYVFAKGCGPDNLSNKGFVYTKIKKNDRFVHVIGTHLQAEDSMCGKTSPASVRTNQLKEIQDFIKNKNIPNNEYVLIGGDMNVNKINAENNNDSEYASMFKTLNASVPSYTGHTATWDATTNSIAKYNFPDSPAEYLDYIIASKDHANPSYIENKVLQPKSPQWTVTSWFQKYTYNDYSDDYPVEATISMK
Description for sphingomyelinase: Agents, such as botanical extracts and related compounds, for example, are tested for their ability to increase the activity of sphingomyelinase in a sphingomyelinase/sphingomyelin-containing system. An increase in the activity of sphingomyelinase results in an increase in the hydrolysis of sphingomyelin and an increased production of ceramide. The Sphingomyelinase Activity Screening Test to determine the efficacy of an agent is completed as follows:
Step 1: Preparation of Testing Solution Comprising Sphingomyelinase, Sphingomyelin, and Agent: Combine the following to prepare a 100 microliter test solution: (1) 10 microliters of agent (such as a botanical extract, for example) where the agent is an aqueous solution or oil (if the agent is a powder or solid, prepare 10 microliters of a 0.1 microgram/milliliter solution by dissolving the appropriate amount of powder or solid in Phosphate Buffered Saline, pH=7.4); (2) 10 microliters of a 0.1 microgram/milliliter sphingomyelinase (Catalogue No. S7651, Sigma Chemical, St. Louis, Mo. (or equivalent)) in Phosphate Buffered Saline, pH=7.4, solution; (3) 10 microliters of a 250 microgram/milliliter BODIPY FL C5-Sphingomyelin (Molecular Probes, Eugene, Oreg. (or equivalent)) in Phosphate Buffered Saline, pH=7.4, solution; and (4) 70 microliters of Phosphate Buffered Saline, pH=7.4.
Step 2: Preparation of Control Testing Solution Comprising Sphingomyelinase and Sphingomyelin: Combine the following to prepare a 100 microliter test solution: (1) 10 microliters of a 0.1 microgram/milliliter sphingomyelinase in Phosphate Buffered Saline, pH=7.4, solution; (2) 10 microliters of a 250 microgram/milliliter BODIPY FL C5-Sphingomyelin in Phosphate Buffered Saline, pH=7.4, solution; and (3) 80 microliters of Phosphate Buffered Saline, pH=7.4. […]

`CC(=O)Oc1c(C)c(C)c2c(c1C)CC[C@@](C)(CCC[C@H](C)CCC[C@H](C)CCCC(C)C)O2` [D1-alpha-Tocophenyl Acetate]: the “Effect on Sphingomyelinase Activity” value at sphingomyelinase was found to be 0.6 Times Activity. Also, the “Effect on Ceramidase Activity” value in assay [1] is “≧1 Times Activity”.

As for Potassium Laureth Phosphate, the “Effect on Sphingomyelinase Activity” value at sphingomyelinase turned out to be 0.1 Times Activity. In addition, the “Effect on Ceramidase Activity” value in assay [1] was “No Effect”.

As to “Sunflower Seedaminopropyl Morpholine Lactate”, the “Effect on Sphingomyelinase Activity” value at sphingomyelinase is 0.1 Times Activity. The “Effect on Ceramidase Activity” value in assay [1] is recorded as “No Effect”.
